These results are taken from US8450359B2, “Polymer-supported photosensitizers for the generation of singlet oxygen” (The Queen's University of Belfast, priority 2006, dated 2013).

Data set [1] deals with Staphylococcus epidermidis. Particulars: for time to dark activity: daylight / laboratory light series; for time to activity in the dark: intense light series; for time to activity on illumination: intense light.
Method: (§1) Studies were performed on the photosensitising activity of porphyrin solutions against Staphylococcus epidermidis, Pseudomonas aeruginosa and Proteus mirabilis as these organisms have been isolated from culture-positive cases of infectious endophthalmitis. Studies were performed by adding a porphyrin solution to a culture of the test organism, exposing this mixture to daylight or to a more intense light source comprising 4×250 W halogen bulbs, and then taking a 1 mL aliquot at certain times to determine the viable count.
(§2) 10 mcg/mL solutions of the three porphyrins were investigated. Initially the solutions were made up at the desired concentration and then double filter sterilised.
(§3) Inocula of approximately 1×10^5 cfu/mL were utilised throughout the microbiological studies of porphyrin solutions. Activity was examined both in normal daylight conditions and using a more intense light source comprising 4×250 W halogen bulbs, cooling the temperature to around 32° C.
(§4) Unfiltered and double filter sterilised 10 mcg/mL solutions were used to examine the effect of double filtration on activity.
The test system of another data set is Proteus mirabilis. Particulars: for reduction in viable count: more intense light; for reduction in growth / viable count: 24 hour study, after 24 hours.
The next data set relates to Pseudomonas aeruginosa. Particulars: for dark activity: intense light series, dark control; for time to activity in light: intense light.
The conditions of data set [2]: in solution; cited from earlier work.
Data set [3] can be described thus: Transient absorbance (triplet lifetime) measurements. The data set is classed as physicochemical. The protocol: For the transient absorption and singlet oxygen studies, the second harmonic output from a Q-switched Nd:YAG laser was used as the excitation source and the sample was mounted at […] to the excitation beam. A pulse energy of 1 mJ was used for the measurements to avoid burning the sample. For transient absorption measurements, light from a xenon arc lamp (Applied Photophysics Ltd., 150 W) traveling at 90° to the excitation beam was directed through the sample and into a monochromator (Applied Photophysics Ltd., 1200 gr/mm grating.) fitted with an IP28 photomultiplier detector connected to a sampling oscilloscope (Tektronix TDS 3032). A 532 nm holographic notch filter (Kaiser Optical Systems Inc.) was mounted in front of the monoochromator entrance slit to reduce the effect of laser scatter on the signal. Processing of the data was carried out using SigmaPlot for Windows (Version 8.0).
Transient absorbance difference (ΔA) measurements were carried out under oxygen-bubbled conditions and after degassing by nitrogen-bubbling for 20 minutes. […] However, N2 bubbling was used in the present studies as freeze-pump-thaw was inappropriate for the polymer samples.

For data set [4] the following is noted: D2O, single exponential decay following the rapid component.
From the text: The ^1O2 detection system was a liquid-nitrogen-cooled Indium Gallium Arsenide (InGaAs) detector (Judson Technologies Inc, Montgomeryville, Pa., type J22D-M204-R01M-60-1.7) with a 1 mm^2 active area. The detector output was amplified using a Judson PA9 pre-amplifier and collected using a Tektronix TDS 3032 oscilloscope. To obtain acceptable signal-to-noise ratios 512 decays were summed for each reading. To minimise the effect of any inhomogeneity in the sample, readings from 8 different points were averaged, The singlet oxygen emission at 1270 nm was separated from the 1064 nm fundamental laser emission and other spurious emissions by use of a 1200 nm long pass filter (LP1200) and a 1292 nm band pass filter (BPO-1292-80), both supplied by Spectrogon UK Ltd.
Using this approach, the polymers prepared were pre-wetted in buffer prepared with D2O and dipped in porphyrin solutions also prepared from D2O.
Where [5] appears, read: one hour study, filtered solution.
The mark [6] stands for this setting: one hour study, daylight / laboratory light, unfiltered solution.
[7] abbreviates: one hour study, unfiltered solution.
The mark [8] stands for this setting: one hour study, double filter sterilised solution.
The mark [9] stands for this setting: one hour study, unfiltered 10 mcg/mL solution.

The structures appear in SMILES notation. Where “and” joins values, the source holds several entries; their conditions need not be identical. Identical values can stand only once. Like-named read-outs stand apart in the source and are kept apart here. Some results are limits rather than exact numbers.

Method for Proteus mirabilis: as §1, §2, §3, §4
Method for Pseudomonas aeruginosa: as §1, §2, §3, §4

As to `C[N+](C)(C)c1ccc(-c2c3nc(c(-c4ccc([N+](C)(C)C)cc4)c4ccc([nH]4)c(-c4ccc([N+](C)(C)C)cc4)c4nc(c(-c5ccc([N+](C)(C)C)cc5)c5ccc2[nH]5)C=C4)C=C3)cc1.[Cl-].[Cl-].[Cl-].[Cl-]` [TMAP, tetra(4N,N,N-trimethyl-anilinium)porphine tetrachloride], the “time to dark activity” value in data set [1] (setting [5]) is “not active in the dark”. The “time to activity (no growth) in light” value in data set [1] (setting [6]) is ≤ 10 min. Besides, the “time to dark activity (no growth in dark control)” value in data set [1] (one hour study, daylight series, unfiltered solution, dark control) is ≤ 10 min. Besides, the “time to activity in the dark” value in data set [1] (setting [5]) and in data set [1] (setting [7]) was ≤ 10 min in each case. The “time to activity on illumination” value in data set [1] (setting [5]) and in data set [1] (setting [7]) was ≤ 10 min throughout. Moreover, the “reduction in viable count” value with Proteus mirabilis (in 3 hours) was “three log cycle reduction”. The activity entry with Proteus mirabilis (one hour study, daylight) was “no activity”; in the data set on Pseudomonas aeruginosa (one hour study, daylight) it was “no activity”. Also, in the data set on Pseudomonas aeruginosa (24 hour study, daylight, at 24 hours), the reduction of growth is reported as 1 log cycle. In the data set with Pseudomonas aeruginosa (one hour study), the dark activity result was “some limited dark activity”. The “time to activity in light” value in the data set on Pseudomonas aeruginosa (setting [8]) and in the data set on Pseudomonas aeruginosa (setting [9]) was ≤ 30 min each time.

Consider `Cl.Cl.O=S(=O)(O)c1ccc(-c2c3nc(c(-c4ccc(S(=O)(=O)O)cc4)c4ccc([nH]4)c(-c4ccc(S(=O)(=O)O)cc4)c4nc(c(-c5ccc(S(=O)(=O)O)cc5)c5ccc2[nH]5)C=C4)C=C3)cc1` [TPPS, tetra(4-sulfonatophenyl)-porphine dihydrochloride], for which the “time to successful photoinactivation, complete kill” value in data set [1] (24 hour study, daylight) turned out to be 24 h. In addition, the “time to activity on illumination” value in data set [1] (setting [5]) was ≤ 50 min; in data set [1] (setting [7]), ≤ 40 min. Further, the “φ(1O2)” value in data set [2] was 0.6717. For the same molecule, the “reduction in growth / viable count” value in the data set on Proteus mirabilis (daylight) is recorded as “no reduction in viable count”. Moreover, in the data set on Proteus mirabilis (by 5 hours), the “reduction in viable count” value is “did not show any photosensitising effect”. Besides, the “reduction in the viable count” value in the data set with Pseudomonas aeruginosa (more intense source, by 5 hours illumination) was “one log cycle reduction”. Moreover, the τ1/μs turned out to be 227.5 ± 6.1 μs in data set [3] (N2 bubbled) and 0.760 ± 0.0023 μs in data set [3] (O2 bubbled).

As to `C[n+]1ccc(-c2c3nc(c(-c4cc[n+](C)cc4)c4ccc([nH]4)c(-c4cc[n+](C)cc4)c4nc(c(-c5cc[n+](C)cc5)c5ccc2[nH]5)C=C4)C=C3)cc1.Cc1ccc(S(=O)(=O)[O-])cc1.Cc1ccc(S(=O)(=O)[O-])cc1.Cc1ccc(S(=O)(=O)[O-])cc1.Cc1ccc(S(=O)(=O)[O-])cc1` [TMPyP, tetra(4N-methylpyridyl)porphine tetratosylate salt], the “1O2 emission decay lifetime” value in data set [4] turned out to be 62 μs. Further, the “time to dark activity” value in data set [1] (setting [5]) is ≤ 30 min. The “time to activity in light” value is ≤ 10 min in data set [1] (one hour study, daylight / laboratory light, filtered solution); ≤ 40 min in the data set with Pseudomonas aeruginosa (setting [8]); ≤ 40 min in the data set with Pseudomonas aeruginosa (setting [9]). The “time to activity (no growth) in light” value in data set [1] (setting [6]) was ≤ 10 min. Moreover, the “time to activity in the dark” value in data set [1] (setting [5]) amounted to 20 min; in data set [1] (setting [7]), 10 min. Besides, the “time to activity on illumination” value in data set [1] (setting [5]) and in data set [1] (setting [7]) was ≤ 10 min throughout. For the same molecule, in the data set with Proteus mirabilis (daylight), the “reduction in growth / viable count” value stood at 1 log cycle. In addition, the “reduction in viable count” value with Proteus mirabilis (by 5 hours) is listed as “three log cycle reduction”. Besides, the photosensitising activity entry in the data set on Pseudomonas aeruginosa (24 hour study, daylight, 10 mcg/mL solution, inoculum ca. 1×10^5 cfu/mL) is “no photosensitising activity”. The dark activity entry in the data set on Pseudomonas aeruginosa (one hour study) was “not active in the dark”. Also, the τ1/μs in data set [3] (N2 bubbled) was 161 μs and 161.0 ± 4.51 μs; in data set [3] (O2 bubbled) it was 0.436 ± 0.00062 μs. Moreover, the “triplet lifetime, solution phase” value in data set [3] (under O2) is 436 ns.
